This is an account of results in patent US5266588A, “Compound produced by a strain of microtetraspora having antibacterial and neuritogenic activity” (Bristol-Myers Squibb Company, priority 1992, dated 1993).

In general, MIC refers to the lowest concentration found to suppress growth. Low values mean inhibition by little substance, high ones a need for much substance.

The conditions of series [1]: literature table; cited from earlier work.
A further series is described as follows: Solubility. It is filed as physicochemical.
In the next series the test system is E. coli K12. Kind of series: Antibacterial activity (serial 2-fold dilution MIC). It is filed as cell-based. As to conditions: Escherichia coli, Nutrient Agar, pH 7.0, 10^5 cells/ml, 32° C., 18 hr. As to the method:
(§1) Assay for the Antibacterial Activity
(§2) The MIC's of BU-4514N against various test microorganisms were determined by the serial 2-fold dilution method after overnight incubation at 32° C. Nutrient agar medium (Difco) was used for Gram-positive and Gram-negative bacteria.
(§3) Medium: Nutrient Agar, pH 7.0
(§4) Inoculum size: 10^5 cells/ml
(§5) Incubations: 32° C., 18 hr

Another series deals with E. coli Juhl A15119. The description is as above. The format is cell-based. The conditions noted are these: Escherichia coli, JUHLA15119; Nutrient Agar, pH 7.0; 10^5 cells/ml; 32° C., 18 hr. Here is the method:
as §1, §2, §3, §4, §5

Another series has as its system S. aureus FDA 209P JC-1. The series is described as above. The format is cell-based. As to conditions: Staphylococcus aureus, FDA209P; Nutrient Agar, pH 7.0; 10^5 cells/ml; 32° C., 18 hr. As to the method:
as §1, §2, §3, §4, §5

In the next series the test system is S. aureus Smith. The description is as above. It is filed as cell-based. The conditions noted are these: Staphylococcus aureus; Nutrient Agar, pH 7.0; 10^5 cells/ml; 32° C., 18 hr. Here is the method: as §1, §2, §3, §4, §5
For a further series, the system named is S. aureus A15036 (MRSA). The description is as above. It is filed as cell-based. The conditions noted are these: Staphylococcus aureus, Nutrient Agar, pH 7.0, 10^5 cells/ml, 32° C., 18 hr. Here is the method:
as §1, §2, §3, §4, §5

The next series has as its system P. aeruginosa A9843A. Described as above. The format is cell-based. As to conditions: Pseudomonas aeruginosa, 18 h, pH 7. As to the method:
as §1, §2, §3, §4, §5

The next series has as its system K. pneumoniae PCI 602. The description is as above. The format is cell-based. The conditions noted are these: Klebsiella pneumoniae, PCI602; Nutrient Agar, pH 7.0; 10^5 cells/ml; 32° C., 18 hr. As to the method: as §1, §2, §3, §4, §5
The next series deals with M. luteus PCI 1001. The description is as above. The format is cell-based. As to conditions: Micrococcus luteus, PCI1001; Nutrient Agar, pH 7.0; 10^5 cells/ml; 32° C., 18 hr. Here is the method:
as §1, §2, §3, §4, §5

Another series deals with E. coli NIHJ JC-2. The series is described as above. As to conditions: Escherichia coli, NIHJJC2; Nutrient Agar, pH 7.0; 10^5 cells/ml; 32° C., 18 hr. It is filed as cell-based. Here is the method:
as §1, §2, §3, §4, §5

Another series concerns B. subtilis PCI 219. Described as above. It is filed as cell-based. The conditions noted are these: Bacillus subtilis, PCI219; Nutrient Agar, pH 7.0; 10^5 cells/ml; 32° C., 18 hr. Here is the method: as §1, §2, §3, §4, §5
The next series relates to S. typhi 901. The description is as above. It is filed as cell-based. As to conditions: Salmonella enterica, 18 h, pH 7. Here is the method:
as §1, §2, §3, §4, §5

Another series relates to C. fleundii GN 7391. Described as above. The format is cell-based. The conditions noted are these: Nutrient Agar, pH 7.0; 10^5 cells/ml; 32° C., 18 hr. Here is the method:
as §1, §2, §3, §4, §5

The next series concerns Gram-positive bacteria. Nature of the series: In vitro antibacterial activity against Gram-positive bacteria. It is filed as cell-based. Here is the method:
as §1, §2

Another series deals with PC 12R cells. Nature of the series: Assay for the neurite outgrowth (PC 12R cells pre-treated with 0.1 ng/ml NGF). The format is cell-based, rat. As to conditions: for No. of Neurites: neurites over 10 mm long on monitor. Here is the method:
Assay for the Neurite Outgrowth
The PC 12R cell density was adjusted to 1×10^5 cells/ml and 180 μl aliquots of the cell suspension were added to assay wells in a 96 well microtiter plate (Suimitomo). […] For the positive controls, 5.0 ng/ml NGF was added to a well. As negative controls, PC 12R cells without NGF were also prepared. […] Then a 20 μl aliquot of a test sample at varied concentrations was added to the test well containing PC 12R cells pre-treated with 0.1 ng/ml NGF. After 24 hours' incubation, the medium was removed and the cells were fixed with 0.3% glutaraldehyde (Tokyo Kasei) in Dulbecco's phosphate buffered saline and stained with Harris hematoxylin solution (Merck).
The stained cells were observed under a phase-contrast microscope connected with a video camera-CRT system. PC 12R cells were magnified 500 times on the CRT monitor. The lengths of spikes of the negative control cells were measured in order to establish the standard length of a spike of the PC 12R cells.

For series [2], the system named is adrenal medullary autografts. As to conditions: intraperitoneal infusion, Parkinson's disease; cited from earlier work.
In series [3] the test system is cholinergic neuron atrophy and spatial memory impairment. As to conditions: aged rats; cited from earlier work.
The subject of series [4] is retrograde neuronal cell death; septohippocampal connections. The conditions noted are these: cited from earlier work.
In series [5] the test system is PC12 pheochromocytoma cells. As to conditions: cited from earlier work.
Where [6] appears, read: 1.6 μg/ml, with 0.1 ng/ml NGF, 24 h.
The mark [7] stands for this setting: 3.1 μg/ml, with 0.1 ng/ml NGF, 24 h.
Where [8] appears, read: 6.3 μg/ml, with 0.1 ng/ml NGF, 24 h.
The mark [9] stands for this setting: 12.5 μg/ml, sum of 5 fields/well and 3 wells, with 0.1 ng/ml NGF, 24 h.
Setting [10] is: NGF 0.1 ng/ml (Running control).

In brackets after ≈: the same amount, converted by molar mass. Entries after “also recorded” stand apart in the source; their conditions may differ.

With `CCCCCCCCCCCCCC(=O)O[C@@H]1[C@@H](C)[C@@]2(O)[C@@H](C=C(CO)C[C@]3(O)C(=O)C(C)=C[C@@H]23)[C@@H]2C(C)(C)[C@]12OC(C)=O` [Phorbol 12-myristate 13-acetate], in [1], the “Note (reported NGF mimic activity)” value was “NGF inducer”.
Turning to `C=C1/C(=C\C=C2/CCC[C@]3(C)[C@@H]([C@H](C)CCCC(C)(C)O)CC[C@@H]23)C[C@@H](O)C[C@@H]1O` [1,25-Dihydroxy-vitamin D3], the “Note (reported NGF mimic activity)” value in series [1] is given as “NGF inducer”.
`CC1=C(/C=C/C(C)=C/C=C/C(C)=C/C(=O)O)C(C)(C)CCC1` [Retinoic acid]: the “Note (reported NGF mimic activity)” value in [1] was “NGF inducer”.
As to `CC1=CC2CC(C)CCC2C(C)(C(=O)C2=C(O)CNC2=O)C1CC(C)OC1CCC(N)C(C)O1` (stereo not shown) [BU-4514N], the solubility result in the series “Solubility” (acidic water) is “soluble”; in “Solubility” (dimethylsulfoxide), “soluble”; in the series “Solubility” (methanol), “soluble”; in “Solubility” (ordinary organic solvents, such as chloroform, ethyl acetate and benzene), “practically insoluble”; in “Solubility” (water), “practically insoluble”. The MIC against E. coli K12 was above 100 µg/mL; with E. coli Juhl A15119 it was above 100 µg/mL; in the series on S. aureus FDA 209P JC-1, 1.6 µg/mL (≈ 3.37 µM); against S. aureus Smith, 3.1 µg/mL (≈ 6.53 µM); in the series on S. aureus A15036 (MRSA), 3.1 µg/mL (≈ 6.53 µM); against P. aeruginosa A9843A, above 100 µg/mL. Further, the MIC against K. pneumoniae PCI 602 was above 100 µg/mL; in the series on M. luteus PCI 1001, 1.6 µg/mL (≈ 3.37 µM); against E. coli NIHJ JC-2 it was above 100 µg/mL; in the series with B. subtilis PCI 219 it was 0.8 µg/mL (≈ 1.69 µM); in the series with S. typhi 901, above 100 µg/mL; in the series on C. fleundii GN 7391, above 100 µg/mL. Moreover, the “in vitro antibacterial activity” value in the series with Gram-positive bacteria was “good in vitro antibacterial activity”. Further, the “No. of Neurites” value in the series with PC 12R cells (setting [6]) came out at 2; in the series on PC 12R cells (setting [7]) it was 25; with PC 12R cells (setting [8]), 149; in the series with PC 12R cells (setting [9]), 244. The “No. of Cells” value with PC 12R cells (setting [6]) amounted to 1611; with PC 12R cells (setting [7]) it was 1848; in the series with PC 12R cells (setting [8]), 1570; with PC 12R cells (setting [9]), 1123. Also, the “Ratio (No. of Neurites/No. of Cells)” value in the series with PC 12R cells (setting [6]) is recorded as 0.12%; in the series with PC 12R cells (setting [7]), 1.4%; in the series with PC 12R cells (setting [8]), 9.5%; in the series on PC 12R cells (12.5 μg/ml, with 0.1 ng/ml NGF, 24 h), 21.7%. In addition, in the series with PC 12R cells (12.5 to 6.3 μg/ml, compared to the negative control cells), the “neurite outgrowth in number and length” value is “significantly induces the neurite outgrowth in number and length”.
Regarding “NGF: protein known to be essential for the development and maintenance of certain sympathetic and sensory neurons in the peripheral nervous system”, the “support of adrenal medullary autografts” value in [2] was “supports adrenal medullary autografts”. Moreover, in series [3], the “cholinergic neuron atrophy and spatial memory impairment” value was “ameliorate cholinergic neuron atrophy and spatial memory impairment”. Also, the behavioral recovery result in [4] (after damage to the septohippocampal connections) is given as “promote behavioral recovery”. In addition, in series [4] (intraventricular injections or infusions, young adult rats), the “retrograde neuronal cell death” value was “prevent retrograde neuronal cell death”. Also, in the series with PC 12R cells (setting [10]), the “No. of Cells” value came out at 1565, the “Ratio (No. of Neurites/No. of Cells)” value was 0.13% and the “No. of Neurites” value turned out to be 2. For the same compound, in the series with PC 12R cells (NGF 5 ng/ml (Positive control)), the “No. of Cells” value amounted to 1053, the “Ratio (No. of Neurites/No. of Cells)” value is recorded as 6.8% and the “No. of Neurites” value amounted to 72. The “sensitivity of PC 12R cells to NGF” value with PC 12R cells (as high as) came to 1 ng/mL. Also, the “response of PC12 cells to NGF” value in series [5] was “differentiate into sympathetic neuron-like cells; also recorded: differentiating into sympathetic neuron-like cells”.
